Columns and labels:
HCV genotype 1a replicon = HCV genotype 1a replicon assay (NS3 protease activity readout); format: cell-based, hepatitis C virus; conditions: for Genotype 1a: HCV genotype 1a replicon; for EC50: Hepatitis C virus, read-out: Genotype 1a, HCV genotype 1a replicon
How it was run: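 Genotype 1a subgenomic replicon cells (APC89, Huh7.5) were treated with compound dose-responses in G418-free medium, 0.5% DMSO final, for 48 or 72 hours at 37° C. Lysate NS3/4a protease activity measured with 15 μM FRET substrate, 20 min at 37° C (ex 340/em 509 nm); EC50 by 4-parameter fit.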

HCV genotype 1b replicon = HCV genotype 1b replicon assay (Renilla luciferase readout); format: cell-based, hepatitis C virus; conditions: for Genotype 1b: HCV genotype 1b replicon; for EC50: Hepatitis C virus, read-out: Genotype 1b
Description: Assay 1: HCV Genotype 1b Replicon Assay
The HCV genotype 1b replicon cell line was obtained from Apath LLC (Brooklyn, N.Y.) (APC144; Huh7 cell background). This subgenomic replicon contains the N-terminus of the HCV core protein fused to the neomycin-resistance selectable marker. The EMCV IRES lies downstream and drives expression of humanized Renilla luciferase fused to the non-structural proteins NS3-NS5B. This cell line was used to determine compound potency using the luciferase activity readout as a measurement of compound inhibition of replicon levels.
Cells were grown at 37° C. in a 5% CO2 humidified incubator in DMEM (Invitrogen) with 10% FBS (HyClone), 1×NEAA (Invitrogen), 1× Pen-Strep (Invitrogen), and 500 μg/mL G418 (Invitrogen). On day 1 of the assay, cells were plated at 10,000 cells/well in white 96-well tissue culture plates (Costar) in 200 μL media lacking G418. Four hours later, once the cells have adhered, the media was removed and replaced with media (no G418) containing dose-responses of test compounds. Compounds were initially diluted in DMSO and then diluted another 200× in media to bring the final DMSO concentration down to 0.5%. The cells were incubated with test compounds for 48 hours. At the end of the incubation period, media and compound were removed from the plates and the luciferase activity was determined using Promega Renilla-Glo reagents.
To analyze the data, the luciferase activity was plotted vs. the compound concentration, and EC50 values were determined from a 4-parameter robust fit model with the GraphPad Prism software package (GraphPad Software, Inc., San Diego, Calif.). Results are expressed as the negative decadic logarithm of the EC50 value, pEC50.
Test compounds having a higher pEC50 value in this assay show greater inhibition of HCV genotype 1b replication.

SMILES	Genotype 1a (HCV genotype 1a replicon)	Genotype 1b (HCV genotype 1b replicon)	EC50 (HCV genotype 1a replicon) [nM]	EC50 (HCV genotype 1b replicon) [nM]
CNC(=O)N1CCN(c2ccc(C(=O)Nc3cc(C(F)(F)F)c(-c4ccc(-c5c[nH]c([C@@H]6C[C@H](C)CN6C(=O)[C@@H](NC(=O)OC)C(C)C)n5)cc4)cc3F)cn2)[C@H](C)C1 [Example 1-9]	D (D represents pEC50>10 (EC50<0.1 nM))	D (D represents pEC50>10 (EC50<0.1 nM))	–	–
COC(=O)N[C@H](C(=O)N1C[C@@H](C)C[C@H]1c1nc(-c2ccc(-c3cc(Cl)c(C(=O)Nc4ccc(N5CCN(C(=O)[C@H]6CC6(C)C)C[C@H]5C)nc4)cc3OC(F)(F)F)cc2)c[nH]1)C1CCOCC1 [Example 22-5]	D (D represents pEC50>10 (EC50<0.1 nM))	D (D represents pEC50>10 (EC50<0.1 nM))	–	–
CNC(=O)N1CCN(c2ccc(C(=O)Nc3cc(OC(F)(F)F)c(-c4ccc(-c5c[nH]c([C@@H]6C[C@H](C)CN6C(=O)[C@@H](NC(=O)OC)C(C)C)n5)cc4)cc3F)cn2)[C@H](C)C1 [Example 1-1]	D (D represents pEC50>10 (EC50<0.1 nM))	D (D represents pEC50>10 (EC50<0.1 nM))	–	–
COCC(=O)N1CCC[C@@]1(C)C(=O)N1C[C@@H](C)N(c2ccc(C(=O)Nc3cc(OC(F)(F)F)c(-c4ccc(-c5c[nH]c([C@@H]6C[C@H](OC)CN6C(=O)[C@@H](NC(=O)OC)C6CCOCC6)n5)cc4)cc3Cl)cn2)C[C@@H]1C [Example 28-17]	D (D represents pEC50>10 (EC50<0.1 nM))	D (D represents pEC50>10 (EC50<0.1 nM))	–	–
CNC(=O)N1CCN(c2ccc(C(=O)Nc3cc(OC(F)(F)F)c(-c4ccc(-c5c[nH]c([C@@H]6C[C@H](C)CN6C(=O)[C@@H](NC(=O)OC)C(C)C)n5)cc4)cc3Cl)cn2)[C@H](C)C1 [Example 1-17]	D (D represents pEC50>10 (EC50<0.1 nM))	D (D represents pEC50>10 (EC50<0.1 nM))	–	–
COC(=O)NC(C(=O)N1CC(C)CC1c1nc(-c2ccc(-c3cc(F)c(NC(=O)c4ccc(N5CCN(C(=O)C6CC6(F)F)CC5C)nc4)cc3C(F)(F)F)cc2)c[nH]1)C(C)C (mixture of isomers) [Example 1-53]	D (D represents pEC50>10 (EC50<0.1 nM))	D (D represents pEC50>10 (EC50<0.1 nM))	–	–
COC(=O)N[C@H](C(=O)N1C[C@@H](C)C[C@H]1c1nc(-c2ccc(-c3ccc(C(=O)Nc4ccc(N5CCN(C(=O)[C@H]6CC6(C)C)C[C@H]5C)nc4)cc3OC(F)(F)F)cc2)c[nH]1)C1CCOCC1 [Example 22-4]	D (D represents pEC50>10 (EC50<0.1 nM))	D (D represents pEC50>10 (EC50<0.1 nM))	–	–
COCC(=O)N1CCC[C@@]1(C)C(=O)N1CCN(c2ccc(NC(=O)c3ccc(-c4ccc(-c5c[nH]c([C@@H]6C[C@H](C)CN6C(=O)[C@@H](NC(=O)OC)C(C)C)n5)cc4)c(OC(F)(F)F)c3)cn2)[C@H](C)C1 [Example 4-4]	D (D represents pEC50>10 (EC50<0.1 nM))	D (D represents pEC50>10 (EC50<0.1 nM))	–	–
COC(=O)N[C@H](C(=O)N1C[C@@H](C)C[C@H]1c1nc(-c2ccc(-c3cc(Cl)c(NC(=O)c4ccc(N5CCN(C(=O)C(C)(C)F)C[C@H]5C)nc4)cc3OC(F)(F)F)cc2)c[nH]1)C(C)C [Example 1-96]	D (D represents pEC50>10 (EC50<0.1 nM))	D (D represents pEC50>10 (EC50<0.1 nM))	–	–
COC(=O)N[C@H](C(=O)N1C[C@@H](C)C[C@H]1c1nc(-c2ccc(-c3ccc(C(=O)Nc4ccc(N5C[C@H](C)N(C(=O)[C@H]6CC6(C)C)C[C@H]5C)nc4)cc3OC(F)(F)F)cc2)c(Cl)[nH]1)C(C)C [Example 4-10]	D (D represents pEC50>10 (EC50<0.1 nM))	D (D represents pEC50>10 (EC50<0.1 nM))	–	–
COC(=O)N[C@H](C(=O)N1C[C@@H](C)C[C@H]1c1nc(-c2ccc(-c3ccc(C(=O)Nc4ccc(N5C[C@H](C)N(C(=O)C6CC6)C[C@H]5C)nc4)cc3OC(F)(F)F)cc2)c(Cl)[nH]1)C(C)C [Example 4-11]	D (D represents pEC50>10 (EC50<0.1 nM))	D (D represents pEC50>10 (EC50<0.1 nM))	–	–
COC(=O)NC(C(=O)N1C[C@@H](C)C[C@H]1c1nc(-c2ccc(-c3cc(Cl)c(NC(=O)c4ccc(N5CCN(C(=O)C(C)(C)C)C[C@H]5C)nc4)cc3C(F)(F)F)cc2)c[nH]1)C1CCS(=O)(=O)CC1 (single isomer, unassigned) [Example 19-6]	D (D represents pEC50>10 (EC50<0.1 nM))	D (D represents pEC50>10 (EC50<0.1 nM))	–	–
COC(=O)N[C@H](C(=O)N1[C@@H](C)CC[C@H]1c1nc(-c2ccc(-c3cc(Cl)c(C(=O)Nc4ccc(N5CCN(C(=O)C(C)(C)C)C[C@H]5C)nc4)cc3OC(F)(F)F)cc2)c[nH]1)C1C[C@@H](C)O[C@@H](C)C1 (some centres unmarked) [Example 18-6]	D (D represents pEC50>10 (EC50<0.1 nM))	D (D represents pEC50>10 (EC50<0.1 nM))	–	–
COC(=O)N[C@H](C(=O)N1C[C@@H](C)C[C@H]1c1nc(-c2ccc(-c3cc(F)c(NC(=O)c4ccc(N5C[C@H](C)N(C(=O)c6c[nH]cn6)C[C@H]5C)nc4)cc3OC(F)(F)F)cc2)c[nH]1)C(C)C [Example 1-14]	D (D represents pEC50>10 (EC50<0.1 nM))	D (D represents pEC50>10 (EC50<0.1 nM))	–	–
COC(=O)N[C@H](C(=O)N1CC2(C[C@H]1c1nc(-c3ccc(-c4ccc(C(=O)Nc5ccc(N6CCN(C(=O)C7CC7(C)C)C[C@H]6C)nc5)cc4)cc3)c[nH]1)OCCO2)C(C)C (some centres unmarked) [Example 6-1]	–	–	0.1 to 1	< 0.1
CNC(=O)N1C[C@@H](C)N(c2ccc(C(=O)Nc3cc(OC(F)(F)F)c(-c4ccc(-c5c[nH]c([C@@H]6C[C@H](C)CN6C(=O)[C@@H](NC(=O)OC)C(C)C)n5)cc4)cc3F)cn2)C[C@@H]1C [Example 1-16]	D (D represents pEC50>10 (EC50<0.1 nM))	D (D represents pEC50>10 (EC50<0.1 nM))	–	–
COC[C@H]1C[C@@H](c2nc(-c3ccc(-c4cc(Cl)c(C(=O)Nc5ccc(N6CCN(C(=O)C(C)(C)C)C[C@H]6C)nc5)cc4OC(F)(F)F)cc3)c[nH]2)N(C(=O)[C@@H](NC(=O)OC)C2CCOCC2)C1 [24-6]	D (D represents pEC50>10 (EC50<0.1 nM))	D (D represents pEC50>10 (EC50<0.1 nM))	–	–
COC(=O)N[C@H](C(=O)N1C[C@@H](C)C[C@H]1c1nc(-c2ccc(-c3cc(Cl)c(C(=O)Nc4ccc(N5CCN(C(=O)C(C)(C)C)C[C@@H]5C)nc4)cc3OC(F)(F)F)cc2)c[nH]1)C1CCOCC1 [24-1]	C (C represents pEC50 between and 9 and about 10, (EC50 between 1 nM and 0.1 nM))	D (D represents pEC50>10 (EC50<0.1 nM))	–	–
COC(=O)NC(C(=O)N1C(C)CCC1c1nc(-c2ccc(-c3cc(Cl)c(NC(=O)c4ccc(N5CCN(C(=O)C6CC6(C)C)CC5C)nc4)cc3OC(F)(F)F)cc2)c[nH]1)C(C)C (centres unmarked) [Example 17-4]	D (D represents pEC50>10 (EC50<0.1 nM))	D (D represents pEC50>10 (EC50<0.1 nM))	–	–
COC(=O)NC(C(=O)N1C[C@@H](C)C[C@H]1c1nc(-c2ccc(-c3cc(Cl)c(NC(=O)c4ccc(N5CCN(C(=O)C(C)(C)C)C[C@H]5C)nc4)cc3OC(F)(F)F)cc2)c[nH]1)C1CCC(=O)CC1 (some centres unmarked) [Example 13-35]	–	–	< 0.1	< 0.1
COCC(=O)N1CCC[C@@]1(C)C(=O)N1C[C@@H](C)N(c2ccc(NC(=O)c3ccc(-c4ccc(-c5c[nH]c([C@@H]6C[C@H](C)CN6C(=O)[C@@H](NC(=O)OC)C(C)C)n5)cc4)c(OC(F)(F)F)c3)cn2)C[C@@H]1C [Example 4-8]	D (D represents pEC50>10 (EC50<0.1 nM))	D (D represents pEC50>10 (EC50<0.1 nM))	–	–
COC(=O)NC(C(=O)N1CC(C)CC1c1nc(-c2ccc(-c3ccc(NC(=O)c4ccc(N5CCN(C(=O)C(C)(C)CO)CC5C)nc4)cc3OC(F)(F)F)cc2)c[nH]1)C(C)(C)O (centres unmarked) [Example 13-28]	D (D represents pEC50>10 (EC50<0.1 nM))	D (D represents pEC50>10 (EC50<0.1 nM))	–	–
CNC(=O)N1C[C@@H](C)N(c2ccc(C(=O)Nc3cc(C(F)(F)F)c(-c4ccc(-c5c[nH]c([C@@H]6C[C@H](C)CN6C(=O)[C@@H](NC(=O)OC)C(C)C)n5)cc4)cc3Cl)cn2)C[C@@H]1C [Example 1-12]	D (D represents pEC50>10 (EC50<0.1 nM))	D (D represents pEC50>10 (EC50<0.1 nM))	–	–
COC(=O)N[C@H](C(=O)N1C[C@@H](C)C[C@H]1c1nc(-c2ccc(-c3ccc(C(=O)Nc4ccc(N5CCN(C(=O)[C@]6(C)CCCN6C(=O)OC(C)C)C[C@H]5C)nc4)cc3OC(F)(F)F)cc2)c[nH]1)C(C)C [Example 4-5]	D (D represents pEC50>10 (EC50<0.1 nM))	D (D represents pEC50>10 (EC50<0.1 nM))	–	–
COC(=O)N[C@H](C(=O)N1C[C@@H](OC)C[C@H]1c1nc(-c2ccc(-c3cc(Cl)c(NC(=O)c4ccc(N5CCN(C(=O)[C@]67C[C@H]6CCN7)C[C@H]5C)nc4)cc3OC(F)(F)F)cc2)c[nH]1)C(C)C [Example 27-5]	D (D represents pEC50>10 (EC50<0.1 nM))	D (D represents pEC50>10 (EC50<0.1 nM))	–	–
